Experimental data taken from ChEMBL document CHEMBL1201862, “PubChem BioAssay data set” (2004).
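These data come from cells grown in 96-well plates and exposed to compound for 48 hours at five concentrations. At the GI50, growth is halved.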 Active and inactive are the calls of the source. Rule as the data show it: active = GI50 up to about 1.1 µM and inactive = higher.

Legend:
Assay in all cases: NCI anticancer screen, dose series, 48 h
SF-295 = system: SF-295
IGROV-1 = system: IGROV-1
U-251 = system: U-251
SK-MEL-28 = system: SK-MEL-28
UO-31 = system: UO-31
SW-620 = system: SW-620
ACHN = system: ACHN
Malme-3M = system: Malme-3M
OVCAR-3 = system: OVCAR-3
HOP-62 = system: HOP-62
DU-145 = system: DU-145
NCI-H23 = system: NCI-H23
A498 = system: A498
HT-29 = system: HT-29
SF-539 = system: SF-539
NCI-H226 = system: NCI-H226
MDA-MB-435 = system: MDA-MB-435
SK-MEL-2 = system: SK-MEL-2
MCF7 = system: MCF7
BT-549 = system: BT-549

Measured: GI50

O=c1c2cc([N+](=O)[O-])ccc2n2n1CCCCC2
inactive: SF-295 > 100 µM | IGROV-1 > 100 µM | U-251 > 100 µM | SK-MEL-28 > 100 µM | UO-31 > 100 µM | SW-620 > 100 µM | ACHN > 100 µM | Malme-3M > 100 µM | OVCAR-3 > 100 µM | HOP-62 > 100 µM | DU-145 > 100 µM | NCI-H23 > 100 µM | A498 > 100 µM | HT-29 > 100 µM | SF-539 > 100 µM | NCI-H226 > 100 µM | MDA-MB-435 > 100 µM

COc1cc(-c2oc3c(OC)c(O)c(OC)c(O)c3c(=O)c2OC)cc(O)c1OC
inactive: SF-295 15.8 µM | IGROV-1 12.1 µM | SK-MEL-2 55.1 µM | U-251 43.4 µM | SK-MEL-28 47.5 µM | UO-31 23.5 µM | SW-620 44.3 µM | ACHN 50.6 µM | Malme-3M 23.9 µM | OVCAR-3 24.7 µM | HOP-62 40.5 µM | DU-145 37.1 µM | NCI-H23 22.6 µM | A498 22.5 µM | HT-29 30.8 µM | SF-539 20.7 µM | NCI-H226 > 100 µM | MDA-MB-435 19.6 µM | MCF7 29.6 µM

Cc1cn(C2C=CC(COP(=O)(OCc3ccc([N+](=O)[O-])o3)N(C)CCCCCl)O2)c(=O)[nH]c1=O (stereo not drawn)
inactive: SF-295 15.6 µM | IGROV-1 3.03 µM | SK-MEL-2 3.48 µM | U-251 5.58 µM | SK-MEL-28 10.6 µM | UO-31 16.7 µM | SW-620 10.1 µM | ACHN 15.3 µM | Malme-3M 1.79 µM | OVCAR-3 1.75 µM | HOP-62 16 µM | DU-145 13.3 µM | NCI-H23 3.05 µM | HT-29 11.7 µM | SF-539 3.72 µM | NCI-H226 10.6 µM | MDA-MB-435 1.8 µM | MCF7 4.99 µM

COc1ccc(Nc2nc3c([nH]2)c(=O)n(C)c(=O)n3C)cc1
inactive: SF-295 > 10 µM | IGROV-1 > 10 µM | SK-MEL-28 > 10 µM | SW-620 > 10 µM | Malme-3M > 10 µM | HOP-62 > 10 µM | DU-145 > 10 µM | NCI-H23 > 10 µM | HT-29 > 10 µM | MDA-MB-435 > 10 µM | MCF7 > 10 µM

COc1ccc2c(c1)[n+]([O-])c(/C(C)=N/NC(=O)CC#N)c[n+]2[O-]
inactive: SF-295 > 100 µM | IGROV-1 > 100 µM | SK-MEL-2 > 100 µM | U-251 > 100 µM | SK-MEL-28 > 100 µM | UO-31 > 100 µM | SW-620 11.1 µM | ACHN > 100 µM | Malme-3M > 100 µM | OVCAR-3 > 100 µM | HOP-62 > 100 µM | NCI-H23 > 100 µM | A498 > 100 µM | HT-29 > 100 µM | SF-539 > 100 µM | NCI-H226 > 100 µM

CO/C(=N\N=C\c1cc(OC)ccc1OC)c1ccncc1
inactive: SF-295 > 10 µM | IGROV-1 > 10 µM | SK-MEL-2 > 10 µM | U-251 > 10 µM | SK-MEL-28 > 10 µM | UO-31 > 10 µM | SW-620 > 10 µM | ACHN > 10 µM | Malme-3M > 10 µM | HOP-62 > 10 µM | NCI-H23 > 10 µM | A498 > 10 µM | SF-539 > 10 µM | NCI-H226 > 10 µM | MCF7 > 10 µM

CC1(C(=O)O)CCCC1C(=O)O (stereo not drawn)
inactive: SF-295 > 100 µM | IGROV-1 > 100 µM | SK-MEL-2 > 100 µM | U-251 > 100 µM | SK-MEL-28 > 100 µM | UO-31 > 100 µM | SW-620 > 100 µM | ACHN > 100 µM | Malme-3M > 100 µM | OVCAR-3 > 100 µM | HOP-62 > 100 µM | DU-145 > 100 µM | NCI-H23 > 100 µM | A498 > 100 µM | HT-29 > 100 µM | NCI-H226 > 100 µM | BT-549 > 100 µM
